Patent publication US11110105B2, “Compounds, composition and uses thereof for treating cancer” (INSTITUT GUSTAVE ROUSSY, priority 2017, dated 2021)

Assays:
Water solubility = assay type: physicochemical
spliceosome (SF3B1) = spliceosome (SF3B1) (Homo sapiens, UniProt O75533+Q7RTV0); settings: in vivo; cited from earlier work
Sequence of spliceosome (SF3B1) (Q7RTV0 whole entry, canonical isoform): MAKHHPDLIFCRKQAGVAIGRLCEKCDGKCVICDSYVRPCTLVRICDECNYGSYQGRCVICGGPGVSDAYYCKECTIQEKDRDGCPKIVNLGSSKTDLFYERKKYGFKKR
Sequence of spliceosome (SF3B1) (Q15393 whole entry, further chain, canonical isoform): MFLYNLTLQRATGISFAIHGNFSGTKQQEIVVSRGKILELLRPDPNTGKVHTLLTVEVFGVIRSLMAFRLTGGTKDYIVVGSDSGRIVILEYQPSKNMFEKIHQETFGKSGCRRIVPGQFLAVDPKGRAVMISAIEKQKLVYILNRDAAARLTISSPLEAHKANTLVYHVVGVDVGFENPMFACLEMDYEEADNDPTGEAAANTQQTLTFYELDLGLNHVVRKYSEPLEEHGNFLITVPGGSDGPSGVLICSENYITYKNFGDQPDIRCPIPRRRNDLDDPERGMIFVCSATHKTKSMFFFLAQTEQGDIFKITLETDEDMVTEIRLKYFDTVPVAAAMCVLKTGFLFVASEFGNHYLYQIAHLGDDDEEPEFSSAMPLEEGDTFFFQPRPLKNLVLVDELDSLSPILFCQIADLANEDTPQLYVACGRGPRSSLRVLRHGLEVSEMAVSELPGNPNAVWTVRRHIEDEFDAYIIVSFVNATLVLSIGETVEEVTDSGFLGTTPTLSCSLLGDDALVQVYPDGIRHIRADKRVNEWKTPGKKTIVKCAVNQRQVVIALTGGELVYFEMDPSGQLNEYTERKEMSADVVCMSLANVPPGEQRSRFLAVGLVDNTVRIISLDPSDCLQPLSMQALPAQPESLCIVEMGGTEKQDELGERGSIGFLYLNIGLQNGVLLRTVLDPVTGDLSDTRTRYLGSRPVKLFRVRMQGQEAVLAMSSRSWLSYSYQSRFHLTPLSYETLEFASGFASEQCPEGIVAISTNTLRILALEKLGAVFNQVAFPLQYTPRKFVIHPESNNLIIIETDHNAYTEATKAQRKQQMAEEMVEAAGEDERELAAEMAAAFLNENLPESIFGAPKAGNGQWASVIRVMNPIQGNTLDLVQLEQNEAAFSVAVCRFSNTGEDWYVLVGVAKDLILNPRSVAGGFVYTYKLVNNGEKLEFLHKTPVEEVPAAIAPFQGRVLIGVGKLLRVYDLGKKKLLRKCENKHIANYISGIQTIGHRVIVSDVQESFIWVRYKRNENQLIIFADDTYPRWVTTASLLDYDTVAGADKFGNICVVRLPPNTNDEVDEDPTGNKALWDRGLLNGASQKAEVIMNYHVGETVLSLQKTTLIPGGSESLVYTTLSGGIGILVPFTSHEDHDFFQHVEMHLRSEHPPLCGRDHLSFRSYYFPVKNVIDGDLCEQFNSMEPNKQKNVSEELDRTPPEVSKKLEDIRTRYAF
Sequence of spliceosome (SF3B1) (Q9BWJ5 whole entry, further chain, canonical isoform): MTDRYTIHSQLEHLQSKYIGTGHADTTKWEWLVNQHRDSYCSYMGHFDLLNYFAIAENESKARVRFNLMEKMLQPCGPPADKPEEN
Sequence of spliceosome (SF3B1) (O75533 whole entry, canonical isoform): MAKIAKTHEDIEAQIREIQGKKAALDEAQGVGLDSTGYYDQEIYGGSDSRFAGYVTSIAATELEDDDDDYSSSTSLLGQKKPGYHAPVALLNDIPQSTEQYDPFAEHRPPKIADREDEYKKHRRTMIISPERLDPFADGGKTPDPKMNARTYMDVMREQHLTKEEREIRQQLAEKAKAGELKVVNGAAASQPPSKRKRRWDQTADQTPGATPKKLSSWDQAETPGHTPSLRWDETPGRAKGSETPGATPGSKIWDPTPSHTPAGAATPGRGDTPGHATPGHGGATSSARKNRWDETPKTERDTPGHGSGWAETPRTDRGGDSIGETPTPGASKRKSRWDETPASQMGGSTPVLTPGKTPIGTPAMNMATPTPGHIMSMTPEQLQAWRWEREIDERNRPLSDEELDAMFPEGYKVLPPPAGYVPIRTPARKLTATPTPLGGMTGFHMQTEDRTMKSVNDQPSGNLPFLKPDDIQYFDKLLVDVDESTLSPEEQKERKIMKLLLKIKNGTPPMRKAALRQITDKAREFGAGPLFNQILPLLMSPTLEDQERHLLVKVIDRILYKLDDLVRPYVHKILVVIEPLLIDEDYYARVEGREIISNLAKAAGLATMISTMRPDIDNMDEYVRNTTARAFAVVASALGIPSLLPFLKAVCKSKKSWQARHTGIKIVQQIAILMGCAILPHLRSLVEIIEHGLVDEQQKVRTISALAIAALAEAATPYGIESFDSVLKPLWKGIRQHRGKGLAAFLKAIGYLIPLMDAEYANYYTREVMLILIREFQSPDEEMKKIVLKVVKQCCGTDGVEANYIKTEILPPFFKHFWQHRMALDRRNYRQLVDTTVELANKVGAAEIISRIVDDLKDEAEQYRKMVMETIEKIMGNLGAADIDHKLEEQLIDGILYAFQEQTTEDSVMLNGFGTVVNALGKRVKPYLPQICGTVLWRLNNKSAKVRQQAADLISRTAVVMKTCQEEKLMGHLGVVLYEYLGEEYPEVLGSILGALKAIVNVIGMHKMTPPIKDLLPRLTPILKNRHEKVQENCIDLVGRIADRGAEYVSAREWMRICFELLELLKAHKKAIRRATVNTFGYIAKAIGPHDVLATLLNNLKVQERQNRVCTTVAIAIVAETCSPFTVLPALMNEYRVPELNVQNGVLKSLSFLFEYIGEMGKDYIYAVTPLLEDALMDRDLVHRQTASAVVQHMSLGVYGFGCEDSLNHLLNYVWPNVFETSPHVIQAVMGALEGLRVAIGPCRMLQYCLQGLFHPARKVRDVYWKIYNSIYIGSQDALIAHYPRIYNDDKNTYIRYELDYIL

Row | Compound | water solubility (Water solubility) | outcome of testing in human (spliceosome (SF3B1))
1 | COc1ccc(-c2cc(=O)c3c([O-])cc(OP(=O)(O)O)c(-c4cc(-c5cc(=O)c6c([O-])cc(OP(=O)(O)O)cc6o5)ccc4OC)c3o2)cc1.[Na+].[Na+] [Compound 2] | considerably higher than that of the parent compound isoginkgetin | –
2 | CC[C@H](O)[C@@H](C)[C@H]1O[C@@H]1C[C@@](C)(O)/C=C/C=C(\C)[C@H]1OC(=O)C[C@H](O)CC[C@@](C)(O)[C@@H](OC(=O)N2CCN(C3CCCCCC3)CC2)/C=C/[C@@H]1C [E7107] | – | stopped because of problems of toxicity
